Experimental data as given in patent publication US20090176817A1, “Method of Treatment of Diarrhea-Predominant Irritable Bowel Syndrome in a Subject” (priority 2005, published 2009).
Where two headings read alike, the source gives them in different places. Marks after values point to notes of the source that are not given here.

Key:
clinical [1] = conditions: human, in vivo
Method: Two randomized, double-blind, placebo controlled, balanced incomplete block design, crossover studies evaluated the single- and multiple-dose pharmacokinetics of oral cilansetron over a 8 mg to 32 mg dose range. In both studies, subjects were randomized to receive two of three treatments during 2 treatment periods. In one study (12 male and 13 female subjects, aged 23 to 36 years), subjects received 8 mg cilansetron, 16 mg cilansetron, or placebo, while in another study (12 males and 13 females, aged 23 to 41 years), subjects received 16 mg cilansetron, 32 mg cilansetron, or placebo. During each treatment period, subjects received a single dose of their assigned treatment on the first day, followed by a 3-day washout, after which they received the same treatment TID for 5 days.
There was a 5-6 day washout period between treatment periods. Doses on the mornings of pharmacokinetic days were administered under fasted conditions. Serial blood sampling and urine collection was performed up to 12 hours following morning dosing on the first day (single dose) and on the last multiple dosing day of each treatment period, and cilansetron pharmacokinetic parameters were evaluated.
In two randomized, double-blind, placebo controlled, balanced incomplete block design, crossover studies evaluating the single- and multiple-dose pharmacokinetics of oral cilansetron over a 8 mg to 32 mg dose range, subjects were randomized to receive two of three treatments during 2 treatment periods. In Study S.241.1.101; (12 male and 13 female subjects, aged 23 to 36 years), subjects received 8 mg cilansetron, 16 mg cilansetron, or placebo, while in Study S.24 1.1.102; (12 males and 13 females, aged 23 to 41 years), subjects received 16 mg cilansetron, 32 mg cilansetron, or placebo. During each treatment period, subjects received a single dose of their assigned treatment on the first day, followed by a 3-day washout, after which they received the same treatment TID for 5 days. There was a 5-6 day washout period between treatment periods. Doses on the mornings of pharmacokinetic days were administered under fasted conditions. Serial blood sampling and urine collection was performed up to 12 hours following morning dosing on the first day (single dose) and on the last multiple dosing day of each treatment period, and cilansetron pharmacokinetic parameters were evaluated.

[2] = tested on: patients with malignant tumors; assay: Study S.241.2.101: cisplatin-induced nausea and vomiting; type: in vivo, human; conditions: IV 8 mg TID
Method: The effect of cilansetron on nausea and vomiting has been studied in 2 clinical studies in cancer patients. Both studies were randomized, singleblind, positive-controlled, parallel-group, pilot studies in male and female patients with malignant tumors, to investigate the effect of cilansetron on cytostatic-induced nausea and vomiting. In both studies, patients were on their first cycle of chemotherapy and were being treated with cisplatin (275 mg/m2 as a single dose in Study S.24 1.2.10 1 and […] for 5 days in Study K.24 1 S O 17). Patients in Study S.24 1.2.10 1 were aged 40-74 years (ITT population=16) and patients in Study K.24 1 S O 17 were aged 39-74 years (ITT population=19). In both studies, patients were randomized to receive either […] or IV ondansetron 8 mg TID for 1 day (Study S.241.2.101) or 5 days (Study K.2415017), corresponding to the day(s) of their cisplatin administration. If nausea and vomiting were completely controlled on a treatment day, the second and/or third doses of cilansetron or ondansetron could be omitted on that day. The primary efficacy parameter in both studies was the combination of the occurrence of vomiting and the severity of nausea, with a responder being defined as a patient with no vomiting and not more than mild nausea during the treatment day(s). […]

in vitro = in vitro ADME; conditions: human, plasma
Method: Protein binding was also evaluated in an in vitro study in human, mouse, rat, and dog plasma using equilibrium dialysis (12-14K molecular weight cut-off membrane). This study measured the binding of (^14C)-cilansetron in plasma at nominal concentrations (30, 90, and 300 ng/mL) which are much higher than those encountered in vivo in humans. This study also measured the binding of (^14C)-cilansetron to purified human serum albumin at cilansetron concentrations ranging from 30-3000 ng/mL and to purified human alpha-1 acid glycoprotein (AAG) at concentrations ranging from 30-10000 ng/mL.

healthy subjects [3] = conditions: in vivo
Method: In a randomized, double-blind, placebo-controlled, 2-way crossover study in 9 male and 9 female healthy subjects (ITT population, aged 21-39 years), subjects were randomized to receive 2 treatments (cilansetron 16 mg tablet and placebo) during the 2 treatment periods. During each treatment period, subjects received a single dose of their assigned treatment on the first day (Day 1), after which they received the same treatment TID for 4 days (Days 2-5). There was a 10-day washout period between treatment periods. Subjects were fasted for at least 2 hours before and following each dose, and heavy physical activity was restricted. Serial 12-lead ECGs was recorded up to 24 hours following dosing on Day 1 (single dose) and on the last day (Day 5) of each treatment period. Heart rate and ECG intervals (RR, PR, QRS, and QT) were measured electronically, but were manually verified and corrected if needed by the investigator. QT intervals were corrected (QTc) electronically for heart rate using the Bazett's correction. Mean and maximum QTc intervals were calculated over different time intervals postdose and were compared between treatments using an ANOVA accounting for sequence, gender, subject within sequence and gender, period, and treatment effects.

clinical [4] = conditions: both, human, serum, Fraction Unbound in Serum
Method: The ex vivo protein binding of cilansetron and its 4-hydroxy metabolites has been measured in serum samples collected in a multiple-dose study in healthy and renally impaired male and female subjects, aged 33-74 years. […] Healthy subjects were matched to renally-impaired subjects with respect to age, weight, gender, and smoking status. All subjects received oral cilansetron 2 mg TID on Days 1 to 5, and a single dose on the morning of Day 6.

[5] = both, human, in vivo
healthy subjects [6] = assay: Study K.241.5007: rectal visceral perception; type: in vivo, human; conditions: mean; for Pressure first producing abdominal pain, Differences from Placebo / Pressure first producing feeling of abdominal sensation, Differences from Placebo / Pressure first producing feeling of need to defecate, Differences from Placebo / Volume first producing abdominal pain, Differences from Placebo / Volume first producing feeling of abdominal sensation, Differences from Placebo / Volume first producing feeling of need to defecate, Differences from Placebo: not significant; for Pressure first producing abdominal pain / Pressure first producing feeling of abdominal sensation / Pressure first producing feeling of need to defecate / Volume first producing abdominal pain / Volume first producing feeling of abdominal sensation / Volume first producing feeling of need to defecate: rectal distension, absolute value
Method: The effect of cilansetron on rectal visceral perception was evaluated in a randomized, doubleblind, placebo-controlled, 4-way crossover study in 12 male healthy subjects (ITT population), aged 18-26 years. Subjects received single IV doses of placebo or cilansetron 4 mg, 8 mg, or 16 mg as 30-minute infusions during each of the periods, with a 14-day washout between periods. Rectal distension tests were done during each treatment, immediately following the completion of each infusion. An electronic barostat was used to produce isobarometric distensions (successive 4 mmHg increases every 5 minutes, up to a sensation of abdominal pain or a maximum of 44 mmHg). The primary efficacy parameter was the distension pressure required to induce a sensation of abdominal pain. Secondary parameters were the distension pressure at the first feeling of abdominal/rectal sensation and the first feeling of need to defecate, and the response rate (defined as the number of subjects who experienced no abdominal pain at the maximum pressure of 44 mmHg). The pain threshold for each of the three cilansetron doses was compared to placebo using a one-sided Dunnett t-test.

`Cc1nccn1C[C@H]1CCc2c(c3cccc4c3n2CCC4)C1=O` [Cilansetron, (R)-(−)-4,5,6,8,9,10-hexahydro-10-[(2-methyl-1H-imidazol-1-yl)methyl]-11H-pyrido-[3,2,1-jk]-carbazol-11-one] gave a Tmax (clinical [1]; both) of 1 h, a Tmax (clinical [1]; both, 8 mg) of 1 h and an AUC (clinical [1]; both, 8 mg) of 0.112 µg·h/mL. The Cmax (clinical [1]; both, 8 mg) was 0.0433 µg/mL, the half-life (clinical [1]; both, 8 mg, T½) was 1.44 h and the half-life (clinical [1]; both, 16 mg, T½) was 1.3 h. For the same compound, the half-life (clinical [1]; both, Mean half-life) was 1.2 to 1.4 h, the Tmax (clinical [1]; female, 8 mg) was 1 h and the AUC (clinical [1]; female, 8 mg) was 0.104 µg·h/mL. It also gave a Cmax (clinical [1]; female, 8 mg) of 0.0432 µg/mL, a half-life (clinical [1]; female, 8 mg, T½) of 1.41 h and a Tmax (clinical [1]; female, po, 8 mg) of 1 h. It also gave an AUC (clinical [1]; female, po, 8 mg) of 0.138 µg·h/mL, a Cmax (clinical [1]; female, po, 8 mg) of 0.0522 µg/mL and a half-life (clinical [1]; female, po, 8 mg, T½) of 1.45 h. For the same compound, the Tmax (clinical [1]; female, po, 16 mg) was 1 h, the Tmax (clinical [1]; male, 8 mg) was 1 h and the AUC (clinical [1]; male, 8 mg) was 0.0745 µg·h/mL. The Cmax (clinical [1]; male, 8 mg) was 0.0358 µg/mL, the half-life (clinical [1]; male, 8 mg, T½) was 1.22 h and the Tmax (clinical [1]; male, po, 8 mg) was 1 h. For the same compound, the AUC (clinical [1]; male, po, 8 mg) was 0.0899 µg·h/mL, the Cmax (clinical [1]; male, po, 8 mg) was 0.0355 µg/mL and the half-life (clinical [1]; male, po, 8 mg, T½) was 1.44 h. For the same compound, the Tmax (clinical [1]; male, po, 16 mg) was 1 h, the Response rate [2] was 16.7% and the fraction unbound (in vitro) was 0.042. For the same compound, the “Effect on mean or maximum QTc interval (Bazett's correction)” value (healthy subjects [3]) was “no effect”, the fraction unbound (clinical [4]) was 0.0396 and the fraction unbound at 1 h (clinical [4]) was 0.0351. The fraction unbound at […] (clinical [4]) was 0.034, the “AUC(0-τ) ratio Mild/Healthy” value [5] was 71 (38, 132) % and the “AUC(0-τ) ratio Moderate/Healthy” value [5] was 49 (25, 95) %. The “AUC(0-τ) ratio Renal Combined/Healthy” value [5] was 76 (47, 124) %, the “AUC(0-τ) ratio Severe/Healthy” value [5] was 130 (66, 254) % and the “CL/F ratio Mild/Healthy” value [5] was 141 (76, 264) %. For the same compound, the “CL/F ratio Moderate/Healthy” value [5] was 206 (105, 403) %, the “CL/F ratio Renal Combined/Healthy” value [5] was 131 (81, 213) % and the “CL/F ratio Severe/Healthy” value [5] was 77 (39, 151) %. For the same compound, the “Cmax ratio Mild/Healthy” value [5] was 83 (50, 140) %, the “Cmax ratio Moderate/Healthy” value [5] was 55 (32, 96) % and the “Cmax ratio Renal Combined/Healthy” value [5] was 90 (60, 134) %. For the same compound, the “Cmax ratio Severe/Healthy” value [5] was 156 (89, 272) %, the “T½ ratio Mild/Healthy” value [5] was 85 (63, 114) % and the “T½ ratio Moderate/Healthy” value [5] was 65 (47, 89)* %. The “T½ ratio Renal Combined/Healthy” value [5] was 78 (62, 99) %, the “T½ ratio Severe/Healthy” value [5] was 87 (64, 120) % and the Tmax ([5]; 2 mg) was 1.13 h. For the same compound, the “Pressure first producing abdominal pain, Differences from Placebo” value (healthy subjects [6]; 4 mg single IV dose) was 0.67 mmHg, the “Pressure first producing feeling of abdominal sensation, Differences from Placebo” value (healthy subjects [6]; 4 mg single IV dose) was −1.00 mmHg and the “Pressure first producing feeling of need to defecate, Differences from Placebo” value (healthy subjects [6]; 4 mg single IV dose) was −0.67 mmHg. For the same compound, the “Volume first producing abdominal pain, Differences from Placebo” value (healthy subjects [6]; 4 mg single IV dose) was 12.7 mL, the “Volume first producing feeling of abdominal sensation, Differences from Placebo” value (healthy subjects [6]; 4 mg single IV dose) was -20.0 mL and the “Volume first producing feeling of need to defecate, Differences from Placebo” value (healthy subjects [6]; 4 mg single IV dose) was -8.75 mL. For the same compound, the “Pressure first producing abdominal pain” value (healthy subjects [6]; 4 mg single IV dose) was 31.0 mmHg, the “Pressure first producing feeling of abdominal sensation” value (healthy subjects [6]; 4 mg single IV dose) was 12.7 mmHg and the “Pressure first producing feeling of need to defecate” value (healthy subjects [6]; 4 mg single IV dose) was 20.3 mmHg. For the same compound, the “Volume first producing abdominal pain” value (healthy subjects [6]; 4 mg single IV dose) was 310 mL, the “Volume first producing feeling of abdominal sensation” value (healthy subjects [6]; 4 mg single IV dose) was 132 mL and the “Volume first producing feeling of need to defecate” value (healthy subjects [6]; 4 mg single IV dose) was 233 mL. The “Pressure first producing abdominal pain, Differences from Placebo” value (healthy subjects [6]; 8 mg single IV dose) was 2.00 mmHg, the “Pressure first producing feeling of abdominal sensation, Differences from Placebo” value (healthy subjects [6]; 8 mg single IV dose) was −1.67 mmHg and the “Pressure first producing feeling of need to defecate, Differences from Placebo” value (healthy subjects [6]; 8 mg single IV dose) was −0.67 mmHg. The “Volume first producing abdominal pain, Differences from Placebo” value (healthy subjects [6]; 8 mg single IV dose) was -0.83 mL, the “Volume first producing feeling of abdominal sensation, Differences from Placebo” value (healthy subjects [6]; 8 mg single IV dose) was -19.2 mL and the “Volume first producing feeling of need to defecate, Differences from Placebo” value (healthy subjects [6]; 8 mg single IV dose) was -10.0 mL. For the same compound, the “Pressure first producing abdominal pain” value (healthy subjects [6]; 8 mg single IV dose) was 32.3 mmHg, the “Pressure first producing feeling of abdominal sensation” value (healthy subjects [6]; 8 mg single IV dose) was 12.0 mmHg and the “Pressure first producing feeling of need to defecate” value (healthy subjects [6]; 8 mg single IV dose) was 20.3 mmHg. The “Volume first producing abdominal pain” value (healthy subjects [6]; 8 mg single IV dose) was 297 mL, the “Volume first producing feeling of abdominal sensation” value (healthy subjects [6]; 8 mg single IV dose) was 133 mL and the “Volume first producing feeling of need to defecate” value (healthy subjects [6]; 8 mg single IV dose) was 232 mL. The “Pressure first producing abdominal pain, Differences from Placebo” value (healthy subjects [6]; 16 mg single IV dose) was 1.33 mmHg, the “Pressure first producing feeling of abdominal sensation, Differences from Placebo” value (healthy subjects [6]; 16 mg single IV dose) was −1.00 mmHg and the “Pressure first producing feeling of need to defecate, Differences from Placebo” value (healthy subjects [6]; 16 mg single IV dose) was −1.00 mmHg. For the same compound, the “Volume first producing abdominal pain, Differences from Placebo” value (healthy subjects [6]; 16 mg single IV dose) was 15.8 mL, the “Volume first producing feeling of abdominal sensation, Differences from Placebo” value (healthy subjects [6]; 16 mg single IV dose) was -14.2 mL and the “Volume first producing feeling of need to defecate, Differences from Placebo” value (healthy subjects [6]; 16 mg single IV dose) was -3.75 mL. For the same compound, the “Pressure first producing abdominal pain” value (healthy subjects [6]; 16 mg single IV dose) was 31.7 mmHg, the “Pressure first producing feeling of abdominal sensation” value (healthy subjects [6]; 16 mg single IV dose) was 12.7 mmHg and the “Pressure first producing feeling of need to defecate” value (healthy subjects [6]; 16 mg single IV dose) was 20.0 mmHg. The “Volume first producing abdominal pain” value (healthy subjects [6]; 16 mg single IV dose) was 313 mL, the “Volume first producing feeling of abdominal sensation” value (healthy subjects [6]; 16 mg single IV dose) was 138 mL and the “Volume first producing feeling of need to defecate” value (healthy subjects [6]; 16 mg single IV dose) was 238 mL.
